Where two headings read alike, the source gives them in different places.
What was measured:
NanoLuc [1] = test: NanoLuc luciferase reporter expression from constitutive promoters and RBSs integrated with pNBU2; format: cell-based, B. thetaiotaomicron; details: for Average Luminescence (RLU/CFU): RBS combined with promoter PBT1311, NanoLuc reporter, three biological replicates; for Expression Level (RLU/CFU): set of 8 RBSs, under control of PBT1311, NanoLuc reporter
B. thetaiotaomicron = test: Minimum inhibitory concentration of polymyxin B with CRISPRi against BT1854; format: cell-based
Text: FIGS. 4A-4F. CRISPRi-mediated repression of recombinant and endogenous genes. (FIG. 4A) Schematic of dCas9-based repression of NanoLuc. LacI^Q is expressed from PBT1311 and represses transcription from the PLacO23 promoter. Addition of IPTG inactivates LacI^Q to allow expression of dCas9 from PLacO23 dCas9 complexes with guide RNA (sgRNA) constitutively expressed from the P1 promoter to prevent the transcription of NanoLuc from the PcfiA promoter. Guide RNAs were designed to target the coding sequence of NanoLuc (NL1-4) or the PcfiA promoter (PR1-2). (FIG. 4B) Response curves of dCas9-mediated targeting the coding sequence of NanoLuc (NL1-4), the promoter (PR1-2) or a nonsense sequence (NS). Fourfold serial dilutions of IPTG starting at 500 μM or no inducer were added to cultures. Response curves were fit to a Hill Function (solid lines). (FIG. 4C) Fold repression elicited by various gRNAs in the presence (500 μM) of inducer. Bars are colored to correspond to part B. (FIG. 4D) Genomic location of endogenous genes targeted using CRISPRi. […]
Resistance to inflammation-associated cationic antimicrobial peptides, such as polymyxin B, is essential for the stability of commensal organisms in the dynamic gut environment. […] Using the minimum inhibitory concentration (MIC) of polymyxin B as a phenotypic readout, an sgRNA was designed to specifically suppress BT1854 expression.

NanoLuc [2] = test: Response curves of inducible promoters driving NanoLuc; format: cell-based, B. thetaiotaomicron; details: for change in gene expression on induction: IPTG induction
Protocol: FIGS. 2A-2E. Design and characterization of genetic sensors. (FIGS. 2A-2D) Response curves for NanoLuc under the regulated control of the rhamnose—(Rha) (FIG. 2A), chondroitin sulfate—(ChS) (FIG. 2B), arabinogalactan—(AG) (FIG. 2C), or IPTG—(FIG. 2D) inducible promoters. LacO1 operator sites were inserted in various regions (O1, O2, O3) of the PcfxA promoter (see also FIGS. 7A-7B). Inducer concentrations were applied as follows: three-fold serial dilutions starting at 10 mM Rha (FIG. 2A); three-fold serial dilutions starting at 0.4% for ChS (FIG. 2B) and AG (FIG. 2C); and four-fold serial dilutions starting at 500 μM for IPTG (FIG. 2D). The leftmost data point in each plot represents the background luminescence in the absence of inducer. Response curves were fit to a Hill function (solid lines). (FIG. 2E) Orthogonality matrix of sugar-inducible genetic systems incubated with 10 mM rhamnose (Rha), 0.2% chondroitin sulfate (ChS), 0.2% arabinogalactan (AG), or 100 mM IPTG compared to no inducer. Error bars represent the standard deviation of three biological replicates made on different days.
FIGS. 7A-7B. Synthetic IPTG-inducible promoters. (FIG. 7A) Synthetic IPTG-inducible promoters were constructed by placing LacO1 operator sites (red) upstream of the −33 element (O1), between the −33 and −7 elements (O2) and/or directly downstream of the transcription start site (O3) of the strong PcfxA promoter. Predicted −33, −7 and +1 sites are shown in bold. These promoters are regulated by the E. coli LacIQ repressor expressed from PBT1311. FIG. 7A depicts SEQ ID NOs: 217 to 220 from top to bottom, respectively. (FIG. 7B) Response curves for the synthetic IPTG-inducible systems. Cells were incubated with no inducer or four-fold serial dilutions of IPTG starting at 500 μM. Data sets for PLacO13 and PLacO23 were fit to a Hill function (solid line). Error bars represent the standard deviation of three biological replicates made on three different days (n=3).
To create inducible systems for use in B. thetaiotaomicron, parts from a large repertoire of systems that govern carbohydrate utilization were used, which included cytoplasmic transcription factors, extracytoplasmic function sigma/anti-sigma pairs, and hybrid two-component systems (HTCS), among others (64). In B. thetaiotaomicron, rhamnose metabolism is mediated by the AraC/XylS-family transcriptional activator, RhaR, which activates transcription at the PBT3763 promoter (Patel E H, et al. Res. Microbiol. 159:678-84, 2008). To assay the functionality of PBT3763 as an inducible system, 250 bp of the promoter-RBS region was cloned upstream of the start codon of BT3763 into the pNBU2 expression vector to drive expression of NanoLuc.
Two-component systems are signal-transduction mechanisms widespread in bacteria for sensing external stimuli. […] Putative HTCSs, BT3334 and BT0267, were identified in transcriptomic studies to control expression of the chondroitin sulfate (ChS)-inducible PBT3324 promoter and arabinogalactan (AG)-inducible PBT0268 promoter, respectively (64, 83). The promoter regions upstream of the BT3324 and BT0268 genes were used as the basis for two polysaccharide sensors. Chondroitin sulfate induction of PBT3324 and arabinogalactan induction PBT0268 led to a 60-fold and 29-fold regulation of output gene expression, respectively (FIGS. 2B and 2C).
Next, an IPTG-inducible system was developed. Pairs of LacO1 operator sites were inserted in the strong PcfxA promoter in three locations: upstream of the −33 element (O1), between the −33 and −7 elements (O2) or just downstream of the transcription start site (O3) (FIGS. 7A-7B). The LacI^Q repressor was expressed from the strong BT1311 promoter to achieve tight control of NanoLuc expression. Compared to the unmodified PcfxA promoter, the addition of synthetic operator sites diminished the maximum expression of NanoLuc (FIGS. 7A-7B). […]

[3] = IPTG inducer, LacIQ expressed from BT1311 promoter, read-out: threshold K

C54: RBS, SEQ ID NO: 141 (DNA TCCCGCATTTTAAAATAAAATAAATTATTCGTTTATTTAAACGAAT; chemistry not fully specified)
Average Luminescence (RLU/CFU) (NanoLuc [1]): 3.651E-05 RLU/CFU

C55: RBS, SEQ ID NO: 142 (DNA TCCCGCATTTTAAAATAAAATAAATTATTCGTTTACTTAAACGAAT; chemistry not fully specified)
Average Luminescence (RLU/CFU) (NanoLuc [1]): 2.628E-05 RLU/CFU

C56: RBS, SEQ ID NO: 143 (DNA TCCCGCATTTTAAAATAAAATAAATTATTCGTTTAGTTAAACGAAT; chemistry not fully specified)
Average Luminescence (RLU/CFU) (NanoLuc [1]): 2.2125E-05 RLU/CFU | Expression Level (RLU/CFU) (NanoLuc [1]): 2.21E-05 RLU/CFU

polymyxin B
decrease in MIC compared to WT and dCas9NS control (B. thetaiotaomicron; dCas9BT1854 cells, dCas9 induced with IPTG): 8 to 16 fold | polymyxin B resistance (B. thetaiotaomicron; dCas9NS strains, presence or absence of IPTG induction, similar to WT): high levels of polymyxin B resistance

rpiL*-C39: RBS, SEQ ID NO: 176; sequence and value match B39 of Table 1 (DNA TCCCGCATTTTAAAATAAAATAAATCATCTAGTTAATTAAACGAATATG; chemistry not fully specified)
Expression Level (RLU/CFU) (NanoLuc [1]): 1.26E-03 RLU/CFU

rpiL*: parent ribosomal protein RBS, SEQ ID NO: 39, 172, 174 (DNA TCCCGCATTTTAAAATAAAATAAATTATTTATTTAATTAAACGAAT; chemistry not fully specified)
Average Luminescence (RLU/CFU) (NanoLuc [1]): 0.02133 RLU/CFU | Expression Level (RLU/CFU) (NanoLuc [1]): 2.13E-02 RLU/CFU

B1: PLacO13: Synthetic IPTG-inducible promoter + RBS, SEQ ID NO: 148 (nucleic acid)
DNA: TTACAAAGAAAATTCGACAAACTGTTATTTTTCTATCTATTTAAATTGTGAGCGGATAACAATTTGGGTGGGAAACTTTAGTTATGTACCTTTGTCGGCAATTGTGAGCGGATAACAATTAAATAAAGATATTCTCGTCAAACAAATATAAATAATATAAAC
EC50 (NanoLuc [2]; [3]): 86 µM | change in gene expression on induction (NanoLuc [2]): 8 fold

B2: PLacO23: Synthetic IPTG-inducible promoter + RBS, SEQ ID NO: 149 (nucleic acid)
DNA: TTACAAAGAAAATTCGACAAACTGTTATTTTTCTATCTATTTATTTGAATTGTGAGCGGATAACAATTACCTTTGTCGGCAATTGTGAGCGGATAACAATTAAATAAAGATATTCTCGTCAAACAAATATAAATAATATAAAC
EC50 (NanoLuc [2]; [3]): 6 µM | change in gene expression on induction (NanoLuc [2]): 22 fold

B3: PBT3324: Chondroitin-sulfate inducible promoter + RBS, SEQ ID NO: 145 (nucleic acid)
DNA: TATTTATAAGAGATAGCACATAATTTGAACTATTTTGTACGATTTGAACCCCTCTTTCCAACAAAAGAGGGGTTTCTTTGCATTCGGGAGAAGAACAAGTGATCTCTCTCTGTAAATACCGGCTAATGATAAACCGATTTACCATCGGACCTAAAACGATATATTCTATGATAAAGCAATCTTTTACTCTGTCAGTGACA
regulation of output gene expression (NanoLuc [2]; chondroitin sulfate induction): 60 fold

B4: PBT3763: Rhamnose inducible promoter + RBS, SEQ ID NO: 144 (nucleic acid)
DNA: TATTTCGGAGAAAACATGCATAAATCATGCTTTTTTTGCATAAAAAGTAAAATTTATACTGATGTAAGGTTTGGCTATGCAGATTTGTGTCAAAATGCACATCCTTTCTATCAAAATGCGTAAGGAAAAGGAGGAAGGAACCGCCTATCTTTGCAATGTAGGTAAATGGATACCTTAAATATATAGACAAAATACC
Hill coefficient n (NanoLuc [2]; rhamnose inducer): 1.4 | EC50 (NanoLuc [2]; rhamnose inducer, read-out: threshold K (Hill function fit)): 300 µM | output dynamic range (NanoLuc [2]; rhamnose induction, NanoLuc): 104 fold

From patent US11591604B2, “Gene expression in Bacteroides” (Massachusetts Institute of Technology, priority 2015, dated 2023)
